# Results: US20210252032A1, “DRUGS FOR GRP78 CELL SURFACE TRANSLOCATION AND PAR-4 SECRETION” (University of Kentucky Research Foundation, priority 2020, published 2021)
# “Also recorded” adds a separate entry of the source.
# Experiments:
# lung cancer cells [1] = assay: GRP78 cell surface translocation in lung cancer cells (FIG. 2); type: cell-based; settings: nanomolar concentrations
# Text: (§1) To maximize the apoptotic effect of secreted Par-4 on lung tumors, the second active agent is effective to elevate GRP78 on the surface of cancer cells and thereby complements the apoptotic action of secreted Par-4. […] Approximately 5% of patients with non-small cell lung cancer (NSCLC) have tumors that contain an inversion in chromosome 2 that juxtaposes the 5′ end of the echinoderm microtubule-associated protein-like 4 (EML4) gene with the 3′ end of the ALK gene. This juxtaposition results in the fusion oncogene called EML4-ALK. ALK+ tumors are highly sensitive to therapy with ALKtargeted inhibitors. […] On the other hand, phosphorylation of SRC at tyrosine 530 (Y530) by C-terminal SRC kinase (Csk) and Csk homologous kinase results in inactivation of SRC.
# [2] = system: LLC1-derived lung tumor nodules; settings: CQ in conjunction with CZT, relative to CZT or CQ administered separately; cited from earlier work
# [3] = system: p53-deficient KP7B lung tumor cells; assay: GRP78 cell surface expression in KP7B lung tumor cells (FIG. 1); type: cell-based
# Text: as §1
# [4] = system: normal lung fibroblast HEL cells; assay: GRP78 cell surface expression in normal HEL cells (FIG. 1); type: cell-based
# Text: as §1
# epithelial BEAS2B cells = assay: GRP78 cell surface expression in normal BEAS2B cells (FIG. 1); type: cell-based
# Text: as §1
# cancer cells = assay: Cell surface expression of GRP78 in cancer cells (FIG. 1 legend); type: cell-based
# lung cancer cells [5] = settings: previous studies (background); cited from earlier work
# normal cells = assay: Par-4 secretion from normal cells; type: cell-based; settings: levels relative to those achieved previously with chloroquine
# [6] = system: tyrosine-protein kinase SRC; assay: SRC activation (FIG. 3); type: cell-based; settings: lung cancer cells
# Text: Dephosphorylation of Y530 by phosphatases results in autophosphorylation of SRC at Y419, leading to activation. SRC activation triggers a signaling cascade that prevents retrograde trafficking of proteins from the Golgi to the ER and promotes GRP78 translocation from the Golgi to the cell surface.
smiles,measurement,setting,value
COc1cc(Nc2ncc3c(n2)-c2ccc(Cl)cc2C(c2c(F)cccc2OC)=NC3)ccc1C(=O)O [alisertib],GRP78 cell surface translocation,lung cancer cells [1],induce cell surface expression of GRP78; also recorded: induced GRP78 cell surface translocation
"CCN(CC)CCCC(C)Nc1ccnc2cc(Cl)ccc12 (stereo not drawn) [CQ, chloroquine]",inhibition of LLC1-derived lung tumor nodules,[2],significantly greater inhibition
"C[C@@H](Oc1cc(-c2cnn(C3CCNCC3)c2)cnc1N)c1c(Cl)ccc(F)c1Cl [CZT, Crizotinib]",Par-4 receptor GRP78 on the cell surface,[3],elevated
same,Par-4 receptor GRP78 on the cell surface,[4],not
same,Par-4 receptor GRP78 on the cell surface,epithelial BEAS2B cells,not
same,cell surface expression of GRP78 in cancer cells,cancer cells,induces
same,Par-4 receptor GRP78 levels on lung cancer cells,lung cancer cells [5],inducer
CCc1c2c(nc3ccc(OC(=O)N4CCC(N5CCCCC5)CC4)cc13)-c1cc3c(c(=O)n1C2)COC(=O)[C@]3(O)CC [irinotecan],Par-4 secretion from normal cells,normal cells,"comparable to, or higher than"
COCCn1c2c([n+](Cc3cnccn3)c1C)C(=O)c1ccccc1C2=O [YM155],GRP78 cell surface translocation,lung cancer cells [1],induce cell surface expression of GRP78; also recorded: induced GRP78 cell surface translocation
CCc1cc2c(cc1N1CCC(N3CCOCC3)CC1)C(C)(C)c1[nH]c3cc(C#N)ccc3c1C2=O [alectinib],activation of SRC,[6],cause the activation of SRC
COc1cccc2c1C(=O)c1c(O)c3c(c(O)c1C2=O)C[C@@](O)(C(=O)CO)C[C@@H]3O[C@H]1C[C@H](N)[C@H](O)[C@H](C)O1 [doxorubicin],Par-4 secretion from normal cells,normal cells,"comparable to, or higher than"
COc1cc([C@@H]2c3cc4c(cc3[C@@H](O[C@@H]3O[C@@H]5CO[C@@H](C)O[C@H]5[C@H](O)[C@H]3O)[C@H]3COC(=O)[C@H]23)OCO4)cc(OC)c1O [etoposide],Par-4 secretion from normal cells,normal cells,"comparable to, or higher than"
